Measured values: paper PMC10743905, “Design, Synthesis, and In Vitro and In Vivo Bioactivity Studies of Hydrazide–Hydrazones of 2,4-Dihydroxybenzoic Acid” (International Journal of Molecular Sciences, 2023)
≈ marks a conversion by molar mass, not a printed value.

Assays:
[1] = tested on: Micrococcus luteus ATCC 10240; experiment: Broth microdilution MIC/MBC; type: cell-based; conditions: for MBC: ATCC10240; for MIC: ATCC10240, read-out: MIC
Source text: (§1) In vitro antimicrobial activity assays - Methodology
(§2) The examined compounds 1 - 24 were screened in vitro for antibacterial and antifungal activities using the broth microdilution method according to procedure reported earlier by our research group and European Committee on Antimicrobial Susceptibility Testing (EUCAST) and Clinical and Laboratory Standards Institute (CLSI) guidelines against a panel of reference and clinical or saprophytic strains of microorganisms, in-cluding Gram-positive bacteria, Staphylococcus aureus ATCC 43300 (Methicillin Resistant S. aureus – MRSA), Staphylococcus aureus ATCC 29213 (Methicillin Susceptible S. aureus – MSSA), Staphylococcus epidermidis ATCC 12228, Enterococcus faecalis ATCC 29212, Micro-coccus luteus ATCC 10240, Bacillus subtilis ATCC 6633 and Bacillus cereus ATCC 10876), Gram-negative bacteria (Bordetella bronchiseptica ATCC 4617, Escherichia coli ATCC 25922, Klebsiella pneumoniae ATCC 13883, Proteus mirabilis ATCC 12453, Salmonella typhimurium ATCC 14028 and Pseudomonas aeruginosa ATCC 9027) and fungi belonging to yeasts (Can-dida albicans ATCC 10231, Candida albicans ATCC 2091, Candida parapsilosis ATCC 22019, Candida glabrata ATCC 90030 and Candida krusei ATCC 14243). The microorganisms be-longing to ATCC came from American Type Culture Collection, routinely used for the evaluation of antimicrobials. […]
(§3) Samples containing examined compounds were dissolved in dimethyl sulfoxide (DMSO). […]
(§4) Subsequently, the MIC (Minimal Inhibitory Concentration) of the compounds was ex-amined by the microdilution broth method, using their two-fold dilutions in Mueller- […]
(§5) Hinton broth or (for bacteria) and RPMI 1640 broth with MOPS (for fungi) prepared in 96-well polystyrene plates. Final concentrations of the compounds ranged from 1000 to 0.488 µg/ml. Microbial suspensions were prepared in 0.85% NaCl with an optical density of 0.5 McFarland standard. Next each bacterial or fungal suspension was added per each well containing broth and various concentrations of the examined compounds. After incuba-

[2] = tested on: Salmonella typhimurium ATCC 14028; experiment: Broth microdilution MIC/MBC; type: cell-based; conditions: Salmonella enterica
Source text: as §1, §2, §3, §4, §5

[3] = tested on: Staphylococcus aureus ATCC 29213; experiment: Broth microdilution MIC/MBC; type: cell-based; conditions: for MBC / MIC: ATCC29213
Source text: as §1, §2, §3, §4, §5

[4] = tested on: Proteus mirabilis ATCC 12453; experiment: Broth microdilution MIC/MBC; type: cell-based; conditions: ATCC12453
Source text: as §1, §2, §3, §4, §5

[5] = tested on: Staphylococcus aureus ATCC 43300; experiment: Broth microdilution MIC/MBC; type: cell-based; conditions: Staphylococcus aureus ATCC 43300 (MRSA)
Source text: as §1, §2, §3, §4, §5

[6] = tested on: Pseudomonas aeruginosa ATCC 9027; experiment: Broth microdilution MIC/MBC; type: cell-based; conditions: ATCC9027
Source text: as §1, §2, §3, §4, §5

[7] = tested on: Staphylococcus epidermidis ATCC 12228; experiment: Broth microdilution MIC/MBC; type: cell-based; conditions: for MIC: ATCC12228, read-out: MIC
Source text: as §1, §2, §3, §4, §5

[8] = tested on: Candida albicans ATCC 2091; experiment: Broth microdilution MIC/MFC; type: cell-based; conditions: for MIC: ATCC2091, read-out: MIC
Source text: as §1
as §2, with “antimicrobials. All the used microbial cultures were first subcultured on nu-trient agar or Sabouraud agar at 35°C for 18-24 h or 30°C for 24-48 h for bacteria and fungi,” for “antimicrobials.”
(§6) The surface of Mueller-Hinton agar (for bacteria) and RPMI 1640 with MOPS (for fungi) were inoculated with the suspensions of bacterial or fungal species. Microbial suspensions were prepared in sterile saline with an optical density of McFarland standard scale 0.5.
(§7) Samples containing examined compounds were dissolved in dimethyl sulfoxide (DMSO).
(§8) Furthermore, bacterial and fungal suspensions were put onto Petri dishes with solid me-dia containing 2 mg/mL of the tested compounds followed incubation at 37°C for 24h and 30°C for 48h for bacteria and fungi, respectively. The inhibition of microbial growth was judged by comparison with a control culture prepared without any sample tested. Ciprof-loxacin, vancomycin, nitrofurantoin, cefuroxime, ampicillin or nystatin (Sigma) were used as a reference antibacterial or antifungal compounds, respectively.
as §4, §5

[9] = tested on: Candida glabrata ATCC 90030; experiment: Broth microdilution MIC/MFC; type: cell-based; conditions: Nakaseomyces glabratus, ATCC90030, read-out: MIC
Source text: as §1
as §2, with “antimicrobials. All the used microbial cultures were first subcultured on nu-trient agar or Sabouraud agar at 35°C for 18-24 h or 30°C for 24-48 h for bacteria and fungi,” for “antimicrobials.”
as §6, §7, §8, §4, §5

[10] = tested on: Candida albicans ATCC 10231; experiment: Broth microdilution MIC/MFC; type: cell-based; conditions: for MIC: ATCC10231, read-out: MIC
Source text: as §1
as §2, with “antimicrobials. All the used microbial cultures were first subcultured on nu-trient agar or Sabouraud agar at 35°C for 18-24 h or 30°C for 24-48 h for bacteria and fungi,” for “antimicrobials.”
as §6, §7, §8, §4, §5

[11] = tested on: Candida krusei ATCC 14243; experiment: Broth microdilution MIC/MFC; type: cell-based; conditions: Pichia kudriavzevii, ATCC14243, read-out: MIC
Source text: as §1
as §2, with “antimicrobials. All the used microbial cultures were first subcultured on nu-trient agar or Sabouraud agar at 35°C for 18-24 h or 30°C for 24-48 h for bacteria and fungi,” for “antimicrobials.”
as §6, §7, §8, §4, §5

[12] = tested on: Candida parapsilosis ATCC 22019; experiment: Broth microdilution MIC/MFC; type: cell-based; conditions: Lodderomyces parapsilosis, ATCC22019, read-out: MIC
Source text: as §1
as §2, with “antimicrobials. All the used microbial cultures were first subcultured on nu-trient agar or Sabouraud agar at 35°C for 18-24 h or 30°C for 24-48 h for bacteria and fungi,” for “antimicrobials.”
as §6, §7, §8, §4, §5

[13] = tested on: Escherichia coli ATCC 25922; experiment: Broth microdilution MIC/MBC; type: cell-based; conditions: ATCC25922
Source text: as §1
as §2, with “antimicrobials. All the used microbial cultures were first subcultured on nu-trient agar or Sabouraud agar at 35°C for 18-24 h or 30°C for 24-48 h for bacteria and fungi,” for “antimicrobials.”
as §6, §7, §8, §4, §5

[14] = tested on: Enterococcus faecalis ATCC 29212; experiment: Broth microdilution MIC/MBC; type: cell-based; conditions: for MBC: ATCC29212, read-out: MBC; for MIC: ATCC29212, read-out: MIC
Source text: as §1
as §2, with “antimicrobials. All the used microbial cultures were first subcultured on nu-trient agar or Sabouraud agar at 35°C for 18-24 h or 30°C for 24-48 h for bacteria and fungi,” for “antimicrobials.”
as §6, §7, §8, §4, §5

[15] = tested on: Bordetella bronchiseptica ATCC 4617; experiment: Broth microdilution MIC/MBC; type: cell-based; conditions: ATCC4617
Source text: as §1
as §2, with “antimicrobials. All the used microbial cultures were first subcultured on nu-trient agar or Sabouraud agar at 35°C for 18-24 h or 30°C for 24-48 h for bacteria and fungi,” for “antimicrobials.”
as §6, §7, §8, §4, §5

[16] = tested on: Klebsiella pneumoniae ATCC 13883; experiment: Broth microdilution MIC/MBC; type: cell-based; conditions: ATCC13883
Source text: as §1
as §2, with “antimicrobials. All the used microbial cultures were first subcultured on nu-trient agar or Sabouraud agar at 35°C for 18-24 h or 30°C for 24-48 h for bacteria and fungi,” for “antimicrobials.”
as §6, §7, §8, §4, §5

[17] = tested on: Bacillus cereus ATCC 10876; experiment: Broth microdilution MIC/MBC; type: cell-based; conditions: for MIC: ATCC10876, read-out: MIC
Source text: as §1
as §2, with “antimicrobials. All the used microbial cultures were first subcultured on nu-trient agar or Sabouraud agar at 35°C for 18-24 h or 30°C for 24-48 h for bacteria and fungi,” for “antimicrobials.”
as §6, §7, §8, §4, §5

[18] = tested on: Bacillus subtilis ATCC 6633; experiment: Broth microdilution MIC/MBC; type: cell-based; conditions: for MBC: ATCC6633; for MIC: ATCC6633, read-out: MIC
Source text: Detailed procedures are presented in the Supplementary Materials. […]
as §1
as §2, with “antimicrobials. All the used microbial cultures were first subcultured on nu-trient agar or Sabouraud agar at 35°C for 18-24 h or 30°C for 24-48 h for bacteria and fungi,” for “antimicrobials.”
as §6, §7, §8, §4, §5

MBC/MIC [1] | MIC [1] | MIC [2] | MIC [3] | MIC [4] | MIC [5] | MIC [6] | MIC [7] | MIC [8] | MIC [9] | MIC [10] | MIC [11] | MIC [12] | MIC [13] | MIC [14] | MIC [15] | MIC [16] | MIC [17] | MIC [18] | Compound | MBC [1] | further results
> 4 | 250 mg/L (≈ 0.584 mM) | > 1000 mg/L | 1000 mg/L (≈ 2.34 mM) | > 1000 mg/L | > 1000 mg/L | > 1000 mg/L | 1000 mg/L (≈ 2.34 mM) | 250 mg/L (≈ 0.584 mM) | > 1000 mg/L | 1000 mg/L (≈ 2.34 mM) | > 1000 mg/L | > 1000 mg/L | > 1000 mg/L | 1000 mg/L (≈ 2.34 mM) | > 1000 mg/L | > 1000 mg/L | 1000 mg/L (≈ 2.34 mM) | 250 mg/L (≈ 0.584 mM) | COc1cc(/C=N/NC(=O)c2ccc(O)cc2O)cc(I)c1O [Compound 16, 2,4-dihydroxy-N-[(4-hydroxy-3-iodo-5-methoxyphenyl)methylidene]benzohydrazide] | > 1000 mg/L | MBC/MIC [3]: > 1; MBC [3]: > 1000 mg/L; MBC/MIC [7]: > 1; MBC ([7]; ATCC12228): > 1000 mg/L; MFC/MIC [8]: > 4; MFC ([8]; ATCC2091, read-out: MFC): > 1000 mg/L; MFC/MIC [10]: > 1; MFC ([10]; ATCC10231, read-out: MFC): > 1000 mg/L; MBC/MIC [14]: > 1; MBC [14]: > 1000 mg/L; MBC/MIC [17]: > 1; MBC ([17]; ATCC10876): > 1000 mg/L; MBC/MIC [18]: > 4; MBC [18]: > 1000 mg/L; melting point: 255 °C
> 2 | 500 mg/L (≈ 1.85 mM) | > 1000 mg/L | 1000 mg/L (≈ 3.7 mM) | > 1000 mg/L | 1000 mg/L (≈ 3.7 mM) | > 1000 mg/L | > 1000 mg/L | > 1000 mg/L | > 1000 mg/L | > 1000 mg/L | > 1000 mg/L | > 1000 mg/L | > 1000 mg/L | 1000 mg/L (≈ 3.7 mM) | > 1000 mg/L | > 1000 mg/L | > 1000 mg/L | 500 mg/L (≈ 1.85 mM) | Cc1ccccc1/C=N/NC(=O)c1ccc(O)cc1O [Compound 1, 2,4-dihydroxy-N-[(2-methylphenyl)methylidene]benzohydrazide] | > 1000 mg/L | MBC/MIC [3]: > 1; MBC [3]: > 1000 mg/L; MBC [5]: > 1000 mg/L; MBC/MIC [5]: > 1; MBC/MIC [14]: > 1; MBC [14]: > 1000 mg/L; MBC/MIC [18]: > 2; MBC [18]: > 1000 mg/L; melting point: 250 °C
> 2 | 500 mg/L (≈ 1.85 mM) | > 1000 mg/L | > 1000 mg/L | > 1000 mg/L | > 1000 mg/L | > 1000 mg/L | > 1000 mg/L | > 1000 mg/L | > 1000 mg/L | > 1000 mg/L | > 1000 mg/L | > 1000 mg/L | > 1000 mg/L | > 1000 mg/L | > 1000 mg/L | > 1000 mg/L | > 1000 mg/L | > 1000 mg/L | Cc1ccc(/C=N/NC(=O)c2ccc(O)cc2O)cc1 [Compound 3, 2,4-dihydroxy-N-[(4-methylphenyl)methylidene]benzohydrazide] | > 1000 mg/L | melting point: 248 °C
